Assay results from patent US20190177279A1, “CARBOXYLIC ACID AROMATIC 1,2-CYCLOPROPYLAMIDES” (Bayer Pharma Aktiengesellschaft, priority 2017, published 2019).

System: stimulated IMR-90 cells
Assay: Cell viability, CellTiter-Glo Luminescent Assay
Type: cell-based, human
Method: IMR-90 cells were cultured in Eagle's Minimum Essential Medium (EMEM) containing 2 mM L-glutamine, 1 g/L glucose, 1.5 g/L NaHCO3, 1 mM sodium pyruvate and non-essential amino acids (ATCC, 30-2003™) supplemented with 10% FBS (Biochrom, 50615) and 50 U/mL Penicillin, 50 μg/mL Streptomycin (PAA, P11-010). The assay was performed in EMEM and a cell density of […] IMR-90 cells/96-well. The compound examples were serially diluted in 100% DMSO and evaluated at 8 different concentrations within the range of 3 nM and 10 μM and a final DMSO concentration of 0.4%. The IMR-90 cells were incubated with the respective concentration of the compound for 30 min. […] The amount of IL-6 and IL-8 in the supernatant was determined using the Human ProInflammatory Panel II (4-Plex) (MSD, K15025B) according to manufacturer's instruction. […] Plates were washed three times with phosphate-buffered saline (PBS; 137 mM NaCl, 2.7 mM KCl, 6.5 mM Na2HP04, 1.7 mM KH2P04) containing 0.05% Tween-20 (Bio-Rad, 161-0781) and electrochemiluminescence detected using the MSD Sector Imager 6000 plate reader. The cell viability was measured using the CellTiter-Glo Luminescent Assay (Promega, G7571) following the manufacturers protocol. […] After incubation and shaking for 10 minutes luminescent signal was measured which was proportional to the amount of ATP present. […]

O=C(O)c1cc(NC(=O)C2CC2c2ccc(Cl)cc2)cc(F)c1-c1cnn(C2CCC2)c1 (racemic) [Example 2, 5-({[2-(4-chlorophenyl)cyclopropyl]carbonyl}amino)-2-(1-cyclobutyl-1H-pyrazol-4-yl)-3-fluorobenzoic acid]
effect on the cell viability: no effect
